The text below walks through data of patent publication US9895349B2, “N-phenyl-carboxamide derivatives and the use thereof as medicaments for the treatment of hepatitis B” (priority 2013, dated 2018).

Data set [1] concerns HBV. Description: Anti-HBV activity, HepG2.2.15 stable transfected cell line, HBV DNA from secreted virions by realtime PCR. It counts as cell-based, Hepatitis B virus (HBV). Particulars: Hepatitis B virus, HepG2.2.15, 144 h, HepG2.2.15 cells, 6 days of treatment.
In data set [2] the test system is HBV. Description: Anti-HBV activity, HepG2.117 inducibly HBV producing cell line (Tet-off), intracellular HBV DNA by realtime PCR. The format is cell-based, Hepatitis B virus (HBV). Conditions: Hepatitis B virus, HepG2.117, 72 h, HepG2.117 cells, 3 days of treatment.
A further data set is described as follows: in vitro. Particulars: human.

Consider `Cc1cc(NC(=O)[C@H]2C[C@@H]3CC[C@H]2N3S(=O)(=O)CC(C)C)ccc1F` (racemic) [Compound 30, N-(4-fluoro-3-methyl-phenyl)-7-isobutylsulfonyl-7-azabicyclo[2.2.1]heptane-3-carboxamide], for which the EC50 in the data set on HBV [1] was found to be 0.61 µM; with HBV [2], 4.7 µM. In “in vitro”, this molecule displayed a CC50 at 4 days greater than 25 µM.

As a reminder, the EC50 is the concentration at which the effect is half-maximal.
